Data published in patent US20090233999A1, “COMPOSITIONS AND THERAPEUTIC METHODS INVOLVING ISOFLAVONES AND ANALOGUES THEREOF” (NOVOGEN RESEARCH PTY LTD, priority 1999, published 2009).

What was measured:
[1] = target: T1, PPARγ (Homo sapiens, UniProt P37231); test: PPARγ agonist activity, GAL4-PPARγ beta-lactamase reporter HEK293 cells; assay type: cell-based; conditions: FIG. 11: 5 μM
T1 construct: host or cells: HEK293 (human embryonic kidney), stably transfected
T1 sequence (P37231 238-503 limits assumed): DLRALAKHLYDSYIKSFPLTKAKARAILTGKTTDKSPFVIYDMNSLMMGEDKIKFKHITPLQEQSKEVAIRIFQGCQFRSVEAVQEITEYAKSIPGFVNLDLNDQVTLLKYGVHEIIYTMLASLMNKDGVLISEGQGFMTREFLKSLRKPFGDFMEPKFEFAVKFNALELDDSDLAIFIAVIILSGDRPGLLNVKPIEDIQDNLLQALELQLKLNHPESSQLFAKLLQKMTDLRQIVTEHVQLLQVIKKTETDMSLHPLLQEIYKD
Description: Human HEK293 cells, stably transfected with the PPARγ ligand binding domain fused with the DNA binding domain of the GAL4 protein (GAL4-PPARγ fusion protein), produce beta-lactamase when incubated with PPARγ ligands. Transfected human kidney embryonic cells (Invitrogen Inc., Carlsbad, Calif.) were seeded onto matrigel in 96-well plates and allowed to attach overnight. The following day, vehicle alone (DMSO) or test compound at 1, 5 and 10 μM was added at varying concentrations to cells and incubated for 16-18 hours. Cells were then loaded with a FRET-based fluorescent substrate to assess beta-lactamase activity. Cells were protected from light, and incubated at room temperature for 2 h. Plates were read on a fluorescence plate reader with an excitation wavelength of 409 nm and emission wavelengths of 460 nm and 530 nm. Results were expressed as a ratio of these two wavelengths after the background (cell-free control wells) had been subtracted. PPARγ activity was thus determined by measuring beta-lactamase activity as assessed by a fluorescent product to substrate ratio.

[2] = system: NFκB; test: NFκB promoter activity, beta-lactamase reporter THP-1 cells stimulated with TNFα; assay type: cell-based; conditions: 30 μM; TNFα-stimulated THP-1 cells
Description: The assay utilised a genetically modified THP-1 cell line containing a stably-transfected beta-lactamase reporter gene under control of the NFkB response element and GeneBLAzer® beta-lactamase technology (Invitrogen Corp). The cells respond to stimulation with TNFα, causing activation of the NFκB signaling pathway. Co-incubation of cells with TNFα and test material allows quantitative determination of the ability of test material to inhibit TNFa-stimulated beta-lactamase production. An inflammatory index was calculated as the ratio of beta-lactamase product to beta-lactamase substrate.
THP-1 cells were seeded into wells of a 96-well plate in the presence of RPMI 1640 medium. TNFα was added to each well to give a final concentration of 7.5 ng/ml and dialyzed bovine serum was added. Compounds dissolved in DMSO were then added. Each plate also contained no-cell controls, no-serum controls and serum controls. Plates were incubated for 5 h at 37° C. to allow for NFκB-stimulated beta-lactamase production. LiveBLAzer™ FRET B/G Substrate (CCF4-AM) substrate was then added to assay. Once CCFA-AM enters a cell, it is converted to negatively charged CCF4 by endogenous esterases. Excitation of this substrate at 409 nm leads to efficient FRET between the coumarin and fluorescein moieties, resulting in a green fluorescence detectable at 530 nm. The presence of beta-lactamase leads to cleavage of CCF4 and results in a loss of FRET, resulting in a robust blue fluorescent signal detectable at 460 nm. Thus, activity of beta-lactamase (a marker of NFκB-promoter activity) is measured as a product to substrate ratio (blue/green fluorescence ratio: 460 nm/530 nm).

[3] = system: rat aortic ring; test: Rat aortic ring assay, contractile response to noradrenaline; conditions: 1 μg/ml
Description: The vasodilatory capacity was examined ex vivo using the rat aortic ring assay.
Male Sprague-Dawley rats (250±50 g) were euthanased with 80% CO2 and 20% O2. The thoracic aorta was excised and quickly mounted in organ-baths as described. Full concentration-contractile curves were obtained to noradrenaline (0.1 nM-[…]) with and without test compounds delivered at a concentration of 1 μg/ml. Experiments were repeated in n=5 different rings from 5 different animals. Only one compound at any one concentration was tested on any one ring from any one animal. Sigmoidal dose response curves were fitted for the data and the logEC50 and the Ema, calculated (Prism 4, GraphPad Software). The difference in these values between the presence and absence of test compound was calculated using a two-tailed paired t test. The effects of β-oestrodiol and vehicle alone were examined as a positive and negative control respectively.

[4] = system: eNOS; test: eNOS mRNA expression in HAECs (real-time PCR); assay type: cell-based, human; conditions: 10 μM; for increase of eNOS mRNA over vehicle control (average): two more assays
Description: HAECs were grown as described above.

[5] = system: splenocytes (T and B cells); test: Murine splenocyte viability and proliferation (Con A, LPS, no mitogen; MTT); assay type: cell-based, mouse; conditions: 10 μM, 3 day; for proliferation of T and B cells: Con A / LPS; for effect on non-proliferating (resting) splenocytes: no mitogen
Description: Male Skh-1 (hairless) mice, approximately six weeks old were killed by cervical dislocation. Single cell suspensions were made from the spleen and erythrocytes were lysed in buffer (0.14M NH4Cl, 17 mM Tris, pH 7.2). The remaining splenocytes were cultured in RPMI-1640 (Gibco) supplemented with 10% (v:v) FBS, 2 mM L-glutamine, pen/strep and 50 μM 2-mercaptoethanol. Splenocytes were added to quadruplicate wells containing either the T cell mitogen concanavalin A (Con A, Sigma-Aldrich—0. 4 μg/well), the B-cell mitogen LPS (Sigma-Aldrich—1 μg/well) or no mitogen, as well as test compound at a concentration of 10 μM in DMSO. Samples were analysed after a 3 day incubation at 37° C. in 5% CO2 in air. Cell viability was assessed by adding MTT to each well, incubating for a further 4 hrs and then developing colour with 0.04N HCl in isopropanol. Supernatant samples were frozen at −80° C. and IL-6, IFN-γ and TNFα were detected in triplicate using ELISA kits (BD Biosciences).

[6] = system: A10; test: Proliferation of rat aorta media cell line A10; assay type: cell-based; conditions: 72 h, three days, read-out: VSMC proliferation - IC50 (μM), A10
Description: Human umbilical vein smooth muscle cells (HUVSMC), tissue explants from a neonate (HRI— passage 2), were seeded into 96 well plates at 1×10^3 cells per well, and allowed to attach for 24 hours. They were then washed twice and incubated in medium without FBS for 24-48 hours to serum-starve them. Test compounds were prepared in medium without FBS and added to the plates and incubated for one hour. Medium with FBS was added to give a final concentration of 10% and the plates incubated for 5 days until the controls were just confluent. Final analogue concentration was therefore either a series from 150 μM to 1.2 μM, or single concentrations of 10 μM. The difference in absorbance between treated cells and untreated cells was calculated using the formula, test/control*100, to obtain the percentage change caused by the test compound. As well, an IC50 for each compound was calculated.
The effect of test compounds a rat aortic smooth muscle cell line (A7r5) and another cell line from the media of rat aorta (A10) was examined. The methodology was the same as for HUVSMC, except that the cells were treated with compound for three days.

Row | SMILES | PPARγ activation (increase in beta-lactamase activity) [1] | NFκB promoter activity [2] | contractile response (logEC50) of the aortic ring to noradrenaline [3] | increase of eNOS mRNA over vehicle control (average) [4] [%] | strength of the contractile response (Emax) [3] | proliferation of T and B cells [5] | effect on non-proliferating (resting) splenocytes [5] | IC50 [6] [µM] | expression of eNOS ([4]; 24 hrs, HAECs)
1 | COc1ccc(C2=Cc3ccc(O)cc3OC2)cc1OC [Cpd. 18, 7-Hydroxy-3′,4′-dimethoxyisoflav-3-ene] | – | significantly inhibited | inhibited | 62 | – | – | – | – | –
2 | Oc1ccc2c(c1)OCC(c1ccc(Br)cc1)=C2 [Cpd. 21, 4′-Bromo-7-hydroxyisoflav-3-ene] | – | – | inhibited | – | – | – | – | – | –
3 | COc1cccc(C2=Cc3ccc(O)cc3OC2)c1 [Cpd. 16, 7-Hydroxy-3′-methoxyisoflav-3-ene] | some PPARγ agonist activity | – | – | – | – | augmented | augmented | 31 | –
4 | Cc1c(O)ccc2c1OCC(c1cccc(O)c1)=C2 [Cpd. 14, 3′,7-Dihydroxy-8-methylisoflav-3-ene] | – | significantly inhibited | – | 86 | – | augmented | augmented | 10 | significantly increased

More lines, main results first:

Row | PPARγ activation (increase in beta-lactamase activity) [1] | SMILES | NFκB promoter activity [2] | contractile response (logEC50) of the aortic ring to noradrenaline [3] | increase of eNOS mRNA over vehicle control (average) [4] [%] | strength of the contractile response (Emax) [3] | proliferation of T and B cells [5] | effect on non-proliferating (resting) splenocytes [5] | IC50 [6] [µM] | expression of eNOS ([4]; 24 hrs, HAECs)
5 | some PPARγ agonist activity | COc1ccc(C2=Cc3ccc(O)c(C)c3OC2)cc1OC [Cpd. 19, 7-Hydroxy-3′,4′-dimethoxy-8-methylisoflav-3-ene] | significantly inhibited | – | – | – | – | – | – | –
6 | some PPARγ agonist activity | Oc1ccc(C2=Cc3ccc(O)c(Br)c3OC2)cc1 [Cpd. 20, 4′,7-Dihydroxy-8-bromoisoflav-3-ene] | significantly inhibited | significantly inhibited | – | reduced | inhibited | suppressive | – | –
